Results on 9 compounds are retold here after patent US12258328B2, “6-membered heteroaryl-containing aminopyridine compounds as EGFR inhibitors” (YUHAN CORPORATION, priority 2021, dated 2025).

One assay addresses EGFR L858R/T790M/C797S (Homo sapiens, UniProt P00533, C797S/L858R/T790M). Put plainly: Biochemical EGFR kinase assay (Lance Ultra TR-FRET), triple mutant L858R/T790M/C797S. Put shortly: (§1)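 Enzyme reactions lasted 1 hour at room temperature with test compounds between 0.003 and 10 μM, followed by 10 mM EDTA quench.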
The target in the next assay is EGFR L858R/C797S (Homo sapiens, UniProt P00533, C797S/L858R). Put plainly: Biochemical EGFR kinase assay (Lance Ultra TR-FRET), double mutant L858R/C797S. A digest of the protocol:
as §1
Background: In TR-FRET formats the signal depends on donor and acceptor labels being close together.

The next assay concerns the target EGFR del19/T790M/C797S (Homo sapiens, UniProt P00533, C797S/DEL746-750/T790M). Put plainly: Biochemical EGFR kinase assay (Lance Ultra TR-FRET), triple mutant del19/T790M/C797S. Put shortly: as §1
In another assay the target is EGFR wildtype (Homo sapiens, UniProt P00533). Put plainly: Biochemical EGFR kinase assay (Lance Ultra TR-FRET), wildtype. Put shortly: as §1
For another assay, the target named is EGFR del19/C797S (Homo sapiens, UniProt P00533, C797S/DEL746-750). Put plainly: Biochemical EGFR kinase assay (Lance Ultra TR-FRET), double mutant del19/C797S. A digest of the protocol: as §1
The mark [1] stands for this setting: IC50 L858R/T790M/C797S (nM) 100 μM ATP, 100 μM ATP.
Where [2] appears, read: Km ATP, read-out: IC50 L858R/T790M/C797S (nM) Km ATP.
Setting [3] is: IC50 L858R/C797S (nM) 100 μM ATP, 100 μM ATP.
Where [4] appears, read: Km ATP, read-out: IC50 L858R/C797S (nM) Km ATP.
Where [5] appears, read: IC50 del19/T790M/C797S (nM) 100 μM ATP, 100 μM ATP.
[6] abbreviates: Km ATP, read-out: IC50 del19/T790M/C797S (nM) Km ATP.
Setting [7] is: IC50 WT (nM) 100 μM ATP, 100 μM ATP.
Where [8] appears, read: Km ATP, read-out: IC50 WT (nM) Km ATP.
The mark [9] stands for this setting: IC50 del19/C797S (nM) 100 μM ATP, 100 μM ATP.
Where [10] appears, read: Km ATP, read-out: IC50 del19/C797S (nM) Km ATP.

Where two headings read alike, the source gives them in different places.

Sequence of EGFR L858R/C797S (P00533 25-1210 C797S/L858R): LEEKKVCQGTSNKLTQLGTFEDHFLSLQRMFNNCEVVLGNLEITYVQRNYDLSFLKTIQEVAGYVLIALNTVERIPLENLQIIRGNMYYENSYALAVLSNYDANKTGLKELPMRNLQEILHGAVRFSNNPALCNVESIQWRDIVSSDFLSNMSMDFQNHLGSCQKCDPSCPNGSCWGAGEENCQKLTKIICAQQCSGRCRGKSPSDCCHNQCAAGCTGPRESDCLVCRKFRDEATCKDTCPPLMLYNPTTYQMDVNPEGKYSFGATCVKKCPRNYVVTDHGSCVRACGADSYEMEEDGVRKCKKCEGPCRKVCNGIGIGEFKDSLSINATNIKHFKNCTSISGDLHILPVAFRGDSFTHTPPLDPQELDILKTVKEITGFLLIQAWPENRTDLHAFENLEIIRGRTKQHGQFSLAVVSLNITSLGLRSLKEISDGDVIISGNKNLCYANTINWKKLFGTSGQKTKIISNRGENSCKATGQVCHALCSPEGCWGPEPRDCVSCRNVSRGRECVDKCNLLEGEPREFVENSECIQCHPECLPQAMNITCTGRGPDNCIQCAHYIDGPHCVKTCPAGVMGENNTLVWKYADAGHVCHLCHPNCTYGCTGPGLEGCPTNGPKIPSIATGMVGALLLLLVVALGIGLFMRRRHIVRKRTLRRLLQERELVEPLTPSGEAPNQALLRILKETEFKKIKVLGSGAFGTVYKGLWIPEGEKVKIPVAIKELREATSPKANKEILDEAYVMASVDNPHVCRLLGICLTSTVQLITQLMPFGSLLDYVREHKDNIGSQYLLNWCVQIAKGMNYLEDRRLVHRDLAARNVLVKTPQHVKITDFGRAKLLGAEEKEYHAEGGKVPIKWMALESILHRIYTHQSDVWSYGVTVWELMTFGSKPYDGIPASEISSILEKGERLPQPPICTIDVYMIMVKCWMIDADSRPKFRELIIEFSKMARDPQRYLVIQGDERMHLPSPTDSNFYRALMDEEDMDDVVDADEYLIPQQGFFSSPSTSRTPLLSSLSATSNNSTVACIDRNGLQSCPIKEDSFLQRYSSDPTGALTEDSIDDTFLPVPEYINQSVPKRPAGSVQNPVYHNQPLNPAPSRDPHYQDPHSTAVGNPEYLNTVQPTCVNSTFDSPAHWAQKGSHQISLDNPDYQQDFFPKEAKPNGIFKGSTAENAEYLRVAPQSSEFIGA
Sequence of EGFR L858R/T790M/C797S (P00533 25-1210 T790M/C797S/L858R): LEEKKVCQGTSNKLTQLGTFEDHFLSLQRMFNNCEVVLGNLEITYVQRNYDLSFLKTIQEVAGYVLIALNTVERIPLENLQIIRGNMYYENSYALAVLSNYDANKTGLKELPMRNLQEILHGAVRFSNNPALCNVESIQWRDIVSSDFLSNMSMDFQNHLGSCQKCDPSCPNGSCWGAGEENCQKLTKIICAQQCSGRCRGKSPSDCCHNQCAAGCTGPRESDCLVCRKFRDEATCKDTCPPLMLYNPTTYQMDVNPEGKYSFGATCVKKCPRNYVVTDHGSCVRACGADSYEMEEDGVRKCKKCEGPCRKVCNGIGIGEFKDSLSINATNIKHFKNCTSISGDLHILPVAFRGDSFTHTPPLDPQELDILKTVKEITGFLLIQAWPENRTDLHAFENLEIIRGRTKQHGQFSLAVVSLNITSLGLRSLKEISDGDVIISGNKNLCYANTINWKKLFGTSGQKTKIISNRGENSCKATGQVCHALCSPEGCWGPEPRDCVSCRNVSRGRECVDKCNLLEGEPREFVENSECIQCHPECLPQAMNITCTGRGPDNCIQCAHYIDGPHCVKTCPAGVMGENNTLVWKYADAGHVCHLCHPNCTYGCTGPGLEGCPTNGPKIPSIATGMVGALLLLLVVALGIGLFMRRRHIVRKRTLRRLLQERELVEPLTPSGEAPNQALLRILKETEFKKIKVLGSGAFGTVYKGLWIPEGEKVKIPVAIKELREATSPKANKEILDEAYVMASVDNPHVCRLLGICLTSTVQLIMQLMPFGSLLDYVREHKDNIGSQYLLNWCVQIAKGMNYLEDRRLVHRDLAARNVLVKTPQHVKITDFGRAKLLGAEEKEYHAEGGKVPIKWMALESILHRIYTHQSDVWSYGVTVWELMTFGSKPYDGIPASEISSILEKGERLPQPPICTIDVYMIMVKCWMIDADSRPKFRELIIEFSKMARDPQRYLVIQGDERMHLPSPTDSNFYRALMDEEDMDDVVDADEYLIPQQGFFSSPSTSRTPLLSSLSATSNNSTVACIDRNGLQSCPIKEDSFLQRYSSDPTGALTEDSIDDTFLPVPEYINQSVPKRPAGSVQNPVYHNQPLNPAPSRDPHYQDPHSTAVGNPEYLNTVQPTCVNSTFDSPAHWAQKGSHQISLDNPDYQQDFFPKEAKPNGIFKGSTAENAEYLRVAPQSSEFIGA
Sequence of EGFR del19/C797S (P00533 with tags, fused parts or gaps DEL746-750/C797S): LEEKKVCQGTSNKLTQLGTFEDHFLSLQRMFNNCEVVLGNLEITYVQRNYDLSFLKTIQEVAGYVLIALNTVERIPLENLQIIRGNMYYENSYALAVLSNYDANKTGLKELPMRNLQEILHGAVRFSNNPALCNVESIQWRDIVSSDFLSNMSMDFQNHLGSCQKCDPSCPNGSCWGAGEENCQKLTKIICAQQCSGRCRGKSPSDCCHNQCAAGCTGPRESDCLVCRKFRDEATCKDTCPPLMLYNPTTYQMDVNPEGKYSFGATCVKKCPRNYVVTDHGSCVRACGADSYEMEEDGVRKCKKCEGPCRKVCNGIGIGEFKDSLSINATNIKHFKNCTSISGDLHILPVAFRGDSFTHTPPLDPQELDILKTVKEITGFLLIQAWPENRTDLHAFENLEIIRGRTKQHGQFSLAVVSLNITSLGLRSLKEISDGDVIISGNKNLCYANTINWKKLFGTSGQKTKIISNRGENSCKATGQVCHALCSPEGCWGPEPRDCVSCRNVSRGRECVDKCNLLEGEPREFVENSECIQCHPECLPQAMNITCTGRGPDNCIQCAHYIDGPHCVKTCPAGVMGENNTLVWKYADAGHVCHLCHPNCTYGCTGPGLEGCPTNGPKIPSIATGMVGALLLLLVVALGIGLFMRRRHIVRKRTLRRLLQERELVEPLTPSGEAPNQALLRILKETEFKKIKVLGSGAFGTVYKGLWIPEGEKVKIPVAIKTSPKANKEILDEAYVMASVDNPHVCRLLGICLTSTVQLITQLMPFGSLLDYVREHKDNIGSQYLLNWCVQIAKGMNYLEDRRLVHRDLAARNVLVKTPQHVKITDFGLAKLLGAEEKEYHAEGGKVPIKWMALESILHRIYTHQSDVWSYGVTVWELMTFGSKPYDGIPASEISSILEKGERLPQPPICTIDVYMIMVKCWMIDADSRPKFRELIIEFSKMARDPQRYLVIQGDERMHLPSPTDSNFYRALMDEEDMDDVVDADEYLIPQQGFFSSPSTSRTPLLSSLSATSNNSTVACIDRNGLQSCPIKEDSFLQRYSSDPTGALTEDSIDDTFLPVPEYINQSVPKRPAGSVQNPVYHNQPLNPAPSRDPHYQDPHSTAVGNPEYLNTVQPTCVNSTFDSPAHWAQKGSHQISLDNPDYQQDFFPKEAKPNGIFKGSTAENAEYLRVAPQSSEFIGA
Sequence of EGFR del19/T790M/C797S (P00533 with tags, fused parts or gaps DEL746-750/T790M/C797S): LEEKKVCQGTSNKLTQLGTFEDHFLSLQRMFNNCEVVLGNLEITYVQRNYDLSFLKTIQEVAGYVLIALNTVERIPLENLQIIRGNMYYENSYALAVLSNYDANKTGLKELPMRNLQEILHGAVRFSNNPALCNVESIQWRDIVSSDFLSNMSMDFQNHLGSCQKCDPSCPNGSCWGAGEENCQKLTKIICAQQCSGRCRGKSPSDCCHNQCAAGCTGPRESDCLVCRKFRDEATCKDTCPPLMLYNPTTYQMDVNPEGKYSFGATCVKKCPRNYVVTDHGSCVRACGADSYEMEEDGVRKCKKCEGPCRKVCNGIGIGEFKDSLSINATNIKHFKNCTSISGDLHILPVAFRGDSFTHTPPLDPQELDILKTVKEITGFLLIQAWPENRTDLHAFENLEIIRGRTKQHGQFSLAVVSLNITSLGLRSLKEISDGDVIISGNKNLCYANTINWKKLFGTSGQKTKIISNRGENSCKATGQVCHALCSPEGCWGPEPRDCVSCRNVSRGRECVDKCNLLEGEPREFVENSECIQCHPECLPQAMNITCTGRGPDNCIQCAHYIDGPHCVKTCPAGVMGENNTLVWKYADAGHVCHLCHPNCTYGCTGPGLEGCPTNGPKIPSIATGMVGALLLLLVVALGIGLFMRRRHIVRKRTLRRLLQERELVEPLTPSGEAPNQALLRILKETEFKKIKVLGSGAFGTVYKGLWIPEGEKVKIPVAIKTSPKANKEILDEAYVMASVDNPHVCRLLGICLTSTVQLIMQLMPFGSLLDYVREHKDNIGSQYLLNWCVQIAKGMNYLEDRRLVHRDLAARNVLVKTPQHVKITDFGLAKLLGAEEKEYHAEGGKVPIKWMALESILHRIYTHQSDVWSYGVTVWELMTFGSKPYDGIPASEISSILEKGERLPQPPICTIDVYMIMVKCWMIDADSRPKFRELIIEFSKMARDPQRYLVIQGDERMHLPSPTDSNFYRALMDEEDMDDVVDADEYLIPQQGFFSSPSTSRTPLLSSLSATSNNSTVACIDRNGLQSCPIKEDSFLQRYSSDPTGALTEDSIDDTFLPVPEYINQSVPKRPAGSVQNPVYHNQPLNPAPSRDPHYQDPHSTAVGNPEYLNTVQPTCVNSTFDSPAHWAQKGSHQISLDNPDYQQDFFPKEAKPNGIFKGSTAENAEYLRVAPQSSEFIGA

On to `COC1CN(c2ccc(-c3cnc(Nc4ccnc(-c5cnn(S(=O)(=O)C6CC6)c5)n4)cc3N[C@H]3CC[C@@H](CN(C)C)CC3)nc2)C1` [Example 93, N^6′-(2-(1-(Cyclopropylsulfonyl)-1H-pyrazol-4-yl)pyrimidin-4-yl)-N^4′-((1s,4s)-4-((dimethylamino)methyl)cyclohexyl)-5-(3-methoxyazetidin-1-yl)-[2,3′-bipyridine]-4′,6′-diamine], for which the IC50 against EGFR L858R/T790M/C797S (setting [1]) was found to be 0.3 nM; at EGFR L858R/T790M/C797S (setting [2]) it was 0.1 nM; at EGFR L858R/C797S (setting [3]), 2.2 nM; at EGFR L858R/C797S (setting [4]), 0.3 nM; against EGFR del19/T790M/C797S (setting [5]), 0.4 nM; on EGFR del19/T790M/C797S (setting [6]), 0.3 nM. Moreover, the IC50 against EGFR wildtype (setting [7]) is 172 nM; on EGFR wildtype (setting [8]), 0.1 nM; on EGFR del19/C797S (setting [9]), 0.5 nM; at EGFR del19/C797S (setting [10]), 0.2 nM.
Turning to `O=S(=O)(C1CC1)n1cc(-c2nccc(Nc3cc(N[C@H]4CC[C@@H](CCO)CC4)c(-c4ccc(C(F)F)cn4)cn3)n2)cn1` [Example 94, 2-((1s,4s)-4-((6′-((2-(1-(Cyclopropylsulfonyl)-1H-pyrazol-4-yl)pyrimidin-4-yl)amino)-5-(difluoromethyl)-[2,3′-bipyridin]-4′-yl)amino)cyclohexyl)ethan-1-ol], the IC50 was 0.9 nM on EGFR L858R/T790M/C797S (setting [2]); 170 nM against EGFR L858R/C797S (setting [3]); 6 nM at EGFR L858R/C797S (setting [4]); 4.4 nM on EGFR del19/T790M/C797S (setting [5]); 2.7 nM at EGFR del19/T790M/C797S (setting [6]); greater than 10000 nM against EGFR wildtype (setting [7]). For the same compound, the IC50 at EGFR wildtype (setting [8]) is 7.2 nM; at EGFR del19/C797S (setting [9]), 13.3 nM; at EGFR del19/C797S (setting [10]), 3.9 nM.
Take `O=S(=O)(C1CC1)n1cc(-c2nccc(Nc3cc(N[C@H]4CC[C@H](CCO)CC4)c(-c4ccc(C(F)F)cn4)cn3)n2)cn1` [Example 95, 2-((1r,4r)-4-((6′-((2-(1-(Cyclopropylsulfonyl)-1H-pyrazol-4-yl)pyrimidin-4-yl)amino)-5-(difluoromethyl)-[2,3′-bipyridin]-4′-yl)amino)cyclohexyl)ethan-1-ol]: the IC50 against EGFR L858R/T790M/C797S (setting [1]) was 2 nM; on EGFR L858R/T790M/C797S (setting [2]) it was 0.9 nM; on EGFR L858R/C797S (setting [3]), 9160 nM; at EGFR L858R/C797S (setting [4]), 8480 nM; against EGFR del19/T790M/C797S (setting [5]), 5.6 nM; on EGFR del19/T790M/C797S (setting [6]) it was 2.5 nM. The IC50 at EGFR wildtype (setting [7]) was greater than 10000 nM; on EGFR wildtype (setting [8]), 222 nM; on EGFR del19/C797S (setting [9]), 1540 nM; at EGFR del19/C797S (setting [10]), 66.9 nM.
In the case of `O=S(=O)(C1CC1)n1cc(-c2nccc(Nc3cc(N[C@H]4CC[C@H](CCO)CC4)c(-c4cc(C(F)F)ccn4)cn3)n2)cn1` [Example 96, 2-((1r,4r)-4-((6′-((2-(1-(Cyclopropylsulfonyl)-1H-pyrazol-4-yl)pyrimidin-4-yl)amino)-4-(difluoromethyl)-[2,3′-bipyridin]-4′-yl)amino)cyclohexyl)ethan-1-ol], the IC50 against EGFR L858R/T790M/C797S (setting [1]) is 0.8 nM; on EGFR L858R/T790M/C797S (setting [2]), 0.7 nM; at EGFR L858R/C797S (setting [3]), 2220 nM; at EGFR L858R/C797S (setting [4]) it was 27.4 nM; against EGFR del19/T790M/C797S (setting [5]) it was 2 nM; against EGFR wildtype (setting [7]) it was greater than 10000 nM. The values for the IC50 at EGFR wildtype (setting [8]), against EGFR del19/C797S (setting [9]) and on EGFR del19/C797S (setting [10]) were 84.7 nM, 224 nM and 68 nM, respectively.
On to `O=S(=O)(C1CC1)n1cc(-c2nccc(Nc3cc(N[C@H]4CC[C@@H](CCO)CC4)c(-c4cc(C(F)F)ccn4)cn3)n2)cn1` [Example 97, 2-((1s,4s)-4-((6′-((2-(1-(Cyclopropylsulfonyl)-1H-pyrazol-4-yl)pyrimidin-4-yl)amino)-4-(difluoromethyl)-[2,3′-bipyridin]-4′-yl)amino)cyclohexyl)ethan-1-ol], for which the IC50 amounted to 1 nM at EGFR L858R/T790M/C797S (setting [1]); 0.5 nM at EGFR L858R/T790M/C797S (setting [2]); 52.6 nM against EGFR L858R/C797S (setting [3]); 2 nM on EGFR L858R/C797S (setting [4]); 2.2 nM against EGFR del19/T790M/C797S (setting [5]); 2.1 nM on EGFR del19/T790M/C797S (setting [6]). Further, the IC50 against EGFR wildtype (setting [7]) is greater than 10000 nM; on EGFR wildtype (setting [8]), 7.4 nM; on EGFR del19/C797S (setting [9]), 6 nM; at EGFR del19/C797S (setting [10]), 2.3 nM.
With `CC(C)(O)[C@H]1CC[C@@H](Nc2cc(Nc3ccnc(-c4cnn(S(=O)(=O)C5CC5)c4)n3)ncc2-c2ccc(CN3CCC(O)CC3)cn2)CC1` [Example 98, 1-((6′-((2-(1-(Cyclopropylsulfonyl)-1H-pyrazol-4-yl)pyrimidin-4-yl)amino)-4′-(((1s,4s)-4-(2-hydroxypropan-2-yl)cyclohexyl)amino)-[2,3′-bipyridin]-5-yl)methyl) piperidin-4-ol], the IC50 on EGFR L858R/T790M/C797S (setting [1]) worked out at 0.2 nM; on EGFR L858R/T790M/C797S (setting [2]), 0.1 nM; at EGFR L858R/C797S (setting [3]) it was 1.9 nM; against EGFR del19/T790M/C797S (setting [5]), 0.5 nM; at EGFR del19/T790M/C797S (setting [6]), 0.4 nM; against EGFR wildtype (setting [7]), 152 nM. This compound registered an IC50 on EGFR del19/C797S (setting [9]) of 0.3 nM.
In the case of `O=S(=O)(C1CC1)n1cc(-c2nccc(Nc3cc(N[C@H]4CC[C@@H](CO)CC4)c(-c4ccc(CN5CCC(O)CC5)cn4)cn3)n2)cn1` [Example 99, 1-((6′-((2-(1-(Cyclopropylsulfonyl)-1H-pyrazol-4-yl)pyrimidin-4-yl)amino)-4′-(((1s,4s)-4-(hydroxymethyl)cyclohexyl)amino)-[2,3′-bipyridin]-5-yl)methyl) piperidin-4-ol], the IC50 on EGFR L858R/T790M/C797S (setting [1]) worked out at 0.1 nM; at EGFR L858R/T790M/C797S (setting [2]), 0.04 nM; at EGFR L858R/C797S (setting [3]), 0.7 nM; on EGFR L858R/C797S (setting [4]), 0.1 nM; on EGFR del19/T790M/C797S (setting [5]), 0.1 nM; at EGFR del19/T790M/C797S (setting [6]), 0.1 nM. In addition, the IC50 against EGFR wildtype (setting [7]) is 61.5 nM; at EGFR wildtype (setting [8]), 0.3 nM; on EGFR del19/C797S (setting [9]), 0.3 nM; at EGFR del19/C797S (setting [10]), 0.3 nM.
In the case of `O=S(=O)(C1CC1)n1cc(-c2nccc(Nc3cc(N[C@H]4CC[C@@H](CO)CC4)c(-c4cc(N5CCC(F)(F)CC5)ccn4)cn3)n2)cn1` [Example 100, ((1s,4s)-4-((6′-((2-(1-(Cyclopropylsulfonyl)-1H-pyrazol-4-yl)pyrimidin-4-yl)amino)-4-(4,4-difluoropiperidin-1-yl)-[2,3′-bipyridin]-4′-yl)amino)cyclohexyl)methanol], the IC50 on EGFR L858R/T790M/C797S (setting [1]) is 5.3 nM; at EGFR L858R/T790M/C797S (setting [2]), 1.3 nM; at EGFR L858R/C797S (setting [3]) it was 24.9 nM; on EGFR L858R/C797S (setting [4]), 12.9 nM; against EGFR del19/T790M/C797S (setting [5]), 8.1 nM; at EGFR del19/T790M/C797S (setting [6]), 6.4 nM. Also, the IC50 at EGFR wildtype (setting [7]) came to 7220 nM; on EGFR wildtype (setting [8]), 12.7 nM; at EGFR del19/C797S (setting [9]), 10.8 nM; on EGFR del19/C797S (setting [10]), 6.5 nM.
As to `CN(C)C[C@H]1CC[C@@H](Nc2cc(Nc3ccnc(-c4cnn(S(=O)(=O)C5CC5)c4)n3)ncc2-c2cc(N3CCC(F)(F)CC3)ccn2)CC1` [Example 101, N^6′-(2-(1-(Cyclopropylsulfonyl)-1H-pyrazol-4-yl)pyrimidin-4-yl)-4-(4,4-difluoropiperidin-1-yl)-N^4′-((1s,4s)-4-((dimethylamino)methyl)cyclohexyl)-[2,3′-bipyridine]-4′,6′-diamine], the IC50 came out at 0.7 nM on EGFR L858R/T790M/C797S (setting [1]); 0.4 nM at EGFR L858R/T790M/C797S (setting [2]); 14.4 nM on EGFR L858R/C797S (setting [3]); 2.1 nM on EGFR L858R/C797S (setting [4]); 0.9 nM against EGFR del19/T790M/C797S (setting [5]); 1.7 nM at EGFR del19/T790M/C797S (setting [6]). Moreover, the IC50 was 575 nM on EGFR wildtype (setting [7]), 2.2 nM at EGFR wildtype (setting [8]), 2.4 nM on EGFR del19/C797S (setting [9]) and 2.1 nM on EGFR del19/C797S (setting [10]).
